Common to all, as to format: biochemical
In assay [1] the target is T1, KLK1 (human) (Homo sapiens, UniProt P06870).
T1 construct: purchased Prospec
The assay can be described thus: KLK1 inhibition, fluorogenic substrate H-Pro-Phe-Arg-AMC. The source says: (§1) The IC50 values For KLK1, KLK2 and KLK8 were obtained in a similar way. For plasmin, tPA, thrombin, Fxa, HNE, Plasma kallikrein Chromogenic substrates were used (absorption: 405 nm). (KLK2, KLK4, KLK8 were supplied by Viktor Magdolen TUMunich (TUM)).

Assay [2] has as its target T2, Matriptase (Homo sapiens, UniProt Q9Y5Y6).
T2 sequence (Q9Y5Y6 1-855): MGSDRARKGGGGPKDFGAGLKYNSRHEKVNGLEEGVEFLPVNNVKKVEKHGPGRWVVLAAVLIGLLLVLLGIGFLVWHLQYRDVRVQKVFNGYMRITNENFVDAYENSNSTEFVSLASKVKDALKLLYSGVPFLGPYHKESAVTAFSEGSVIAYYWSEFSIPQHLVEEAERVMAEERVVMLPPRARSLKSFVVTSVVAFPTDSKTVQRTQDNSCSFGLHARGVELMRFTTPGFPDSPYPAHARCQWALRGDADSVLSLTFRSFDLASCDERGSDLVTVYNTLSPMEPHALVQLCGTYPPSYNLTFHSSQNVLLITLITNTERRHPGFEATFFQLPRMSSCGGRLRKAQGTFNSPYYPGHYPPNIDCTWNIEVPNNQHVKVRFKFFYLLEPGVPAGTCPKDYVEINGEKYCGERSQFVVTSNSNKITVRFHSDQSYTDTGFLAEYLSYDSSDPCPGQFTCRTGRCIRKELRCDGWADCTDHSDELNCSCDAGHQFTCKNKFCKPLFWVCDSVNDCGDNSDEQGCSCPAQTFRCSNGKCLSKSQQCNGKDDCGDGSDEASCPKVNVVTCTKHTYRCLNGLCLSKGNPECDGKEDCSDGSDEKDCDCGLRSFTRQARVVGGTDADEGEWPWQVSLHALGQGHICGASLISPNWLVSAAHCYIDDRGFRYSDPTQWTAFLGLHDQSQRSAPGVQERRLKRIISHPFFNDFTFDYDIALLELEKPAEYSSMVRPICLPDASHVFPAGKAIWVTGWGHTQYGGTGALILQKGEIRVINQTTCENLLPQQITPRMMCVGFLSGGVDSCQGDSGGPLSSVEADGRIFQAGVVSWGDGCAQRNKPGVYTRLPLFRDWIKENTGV
Kind of assay: Matriptase inhibition.

The target of assay [3] is T3, uPA (recombinant) (Homo sapiens, UniProt P00749).
T3 construct: purchased Nodia
Kind of assay: uPA inhibition, chromogenic substrate Biophen CS-61(44).

Assay [4] addresses T4, KLK4 (Homo sapiens, UniProt Q9Y5K2).
T4 construct: purchased Viktor Magdolen (TUM), supplied by an academic laboratory
Kind of assay: KLK4 inactivation kinetics from progress curves (kobs vs inhibitor concentration). The following applies: for Irreversible (KLK4): irreversible binding to KLK4, Yes/No. The protocol: (§2) Inhibitor stock solutions were prepared in DMSO and stored at −20° C. Because the compounds described in this paper completely inactivate KLK4 following pseudo first-order kinetics, the IC50 value is inversely correlated with the second-order rate constant of inactivation. For a simple pseudo first-order inactivation process, the activity after incubation with inhibitor (vi) varies with the inhibitor concentration (i), as described in the following equation: vi=v0×e^−k t, where vo is the activity in absence of inhibitor, k is the second-order rate constant of inactivation, and t is the time. The inactivation rate constant was determined from the time course of inhibition.
The inhibitor was mixed with the substrate (250 μM final concentration), and the buffer solution with the enzyme was added at the time zero. […] The progress curves show the absorbance of aminomethylcoumarine produced as a function of time. Initially, no inhibitor is bound to the enzyme, and the tangent to the progress curve (dA/dt) is proportional to the concentration of the free enzyme. The concentration of free enzyme decreases over time due to the kinetics of inhibitor binding, as described above. Progress curves were recorded in pseudo first-order conditions ([I]0>>[E]0) and with less than 10% conversion of the substrate during the entire time course. In these conditions, dA/dt decreases exponentially with time. The progress curves were fitted with the integrated rate equation to yield a value for kobs, a pseudofirst-order rate constant At=v0[1−e^−k^obs^t]/kobs+A0 where At=absorbance at time t, A0=absorbance at time zero, and v0=uninhibited initial rate.
The apparent second-order rate constant (kapp) was calculated from the slope of the linear part of the plot of kobs versus the inhibitor concentration ([I]0). In case of competition between the inhibitor and the substrate, kapp is smaller than the “real” second order rate constant k discussed above because a certain fraction of the enzyme is present as an enzyme-substrate complex. kapp depends on the substrate concentration used in the experiment, as described by Lambeir et al. (Lambeir, Borloo et al. 1996).

Assay [5] deals with T4, KLK4. Kind of assay: KLK4 enzymatic inhibition, fluorogenic substrate Boc-Val-Pro-Arg-AMC. The protocol:
The substrate was obtained form Bachem and the enzyme was provided by Viktor Magdolen (TUM). The reaction was monitored with an excitation wavelength of 355 nm and emission wavelength of 460 nm. The initial rate was determined between 2500000 and 4500000 mRFU/min. The reaction mixture contained 25 μM substrate and approximately 1 mU of enzyme in 145 μL of buffer in a final volume of […]. A 50 mM Tris buffer, pH 8.3, was used. From each inhibitor concentration, 5 μL was added, obtaining a final concentration from 0 to 250 μM in a total volume of 0.2 mL. Activity measurements were routinely performed in duplicate. […] IC50 values were obtained by fitting the data with the four-parameter logistics equation using Grafit 7.
[formula] where s=slope factor, v=rate, I0=inhibitor concentration, and range=the fitted uninhibited value minus the background. The equation assumes they falls with increasing x.
as §2

The target of assay [6] is T5, KLK8 (human) (Homo sapiens, UniProt O60259).
T5 construct: purchased Viktor Magdolen, TUMunich (TUM), supplied by an academic laboratory
T5 sequence (O60259 33-260): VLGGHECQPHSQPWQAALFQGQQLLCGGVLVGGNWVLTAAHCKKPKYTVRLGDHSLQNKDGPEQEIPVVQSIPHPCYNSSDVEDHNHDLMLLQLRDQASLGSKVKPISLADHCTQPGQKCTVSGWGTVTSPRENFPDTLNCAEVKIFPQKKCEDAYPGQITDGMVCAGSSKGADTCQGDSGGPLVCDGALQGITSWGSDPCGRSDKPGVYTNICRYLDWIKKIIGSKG
Kind of assay: KLK8 inhibition, fluorogenic substrate Boc-Val-Pro-Arg-AMC.
Text: as §1

Assay [7] deals with T6, Plasmine (human plasma) (Homo sapiens, UniProt P00747).
T6 construct: purchased Sigma-Aldrich; host or cells: human plasma
The assay can be described thus: Plasmin inhibition, chromogenic substrate Biophen CS-21(66).
Text: as §1

The target in assay [8] is T7, FXa (Homo sapiens, UniProt P00742).
T7 construct: purchased Nodia
Kind of assay: FXa inhibition, chromogenic substrate Biophen CS-11(32). The following applies: Tris buffer pH 8.3; read-out: IC50 FXa.
Text: as §1

The target of assay [9] is T8, PlasmaKLK (human plasma) (Homo sapiens, UniProt P03952).
T8 construct: purchased Sigma-Aldrich; host or cells: human plasma
The assay can be described thus: Plasma kallikrein inhibition, chromogenic substrate Biophen CS-31(02). The following applies: Plasma KLK; Tris buffer pH 7.8; read-out: IC50 pKLK.
Text: as §1

The target of assay [10] is T9, Thrombine (human plasma) (Homo sapiens, UniProt P00734).
T9 construct: purchased Sigma-Aldrich; host or cells: human plasma
The assay can be described thus: Thrombin inhibition, chromogenic substrate Biophen CS-21(66).

Assay [11] concerns the target T10, tPA (recombinant) (Homo sapiens, UniProt P00750).
T10 construct: purchased Nodia
The assay can be described thus: tPA inhibition, chromogenic substrate Biophen CS-05(88). The following applies: Tris buffer pH 8.3; read-out: IC50 tPA.
Text: as §1

Assay [12] addresses T11, KLK2 (human) (Homo sapiens, UniProt P20151).
T11 construct: purchased Viktor Magdolen, TUMunich (TUM), supplied by an academic laboratory
The assay can be described thus: KLK2 inhibition, fluorogenic substrate H-Pro-Phe-Arg-AMC.
Text: as §1

[13] abbreviates: Tris buffer pH 7.8, read-out: IC50 KLK1.
Setting [14] is: Tris buffer pH 8.8, read-out: IC50 uPA.
[15] abbreviates: 15 min pre-incubation at 37° C., Tris buffer pH 8.3, read-out: IC50 KLK4.
Setting [16] is: Thrombin, Tris buffer pH 8.3, read-out: IC50 THR.
Setting [17] is: Plasmin, Tris buffer pH 7.4, read-out: IC50 PLM.

pIC50: −log10 of the molar value. Read-outs that look alike come from different tables or passages of the source. Where only a bound is given, the exact number is not on record here.

T7 sequence (P00742 235-488 limits assumed): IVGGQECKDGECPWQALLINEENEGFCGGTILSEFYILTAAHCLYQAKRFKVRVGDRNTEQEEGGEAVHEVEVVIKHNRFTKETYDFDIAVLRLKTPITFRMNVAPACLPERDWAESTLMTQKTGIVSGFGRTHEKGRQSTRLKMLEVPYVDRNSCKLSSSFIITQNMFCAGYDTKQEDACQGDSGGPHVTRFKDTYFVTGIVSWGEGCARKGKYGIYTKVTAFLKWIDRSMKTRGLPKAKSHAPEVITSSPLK
T7 sequence (P00742 41-179 partner limits assumed): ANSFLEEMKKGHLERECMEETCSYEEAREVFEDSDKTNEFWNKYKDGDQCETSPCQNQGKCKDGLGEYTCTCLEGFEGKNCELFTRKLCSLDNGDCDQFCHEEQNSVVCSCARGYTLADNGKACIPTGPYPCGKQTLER
T8 sequence (P03952 391-638 limits assumed): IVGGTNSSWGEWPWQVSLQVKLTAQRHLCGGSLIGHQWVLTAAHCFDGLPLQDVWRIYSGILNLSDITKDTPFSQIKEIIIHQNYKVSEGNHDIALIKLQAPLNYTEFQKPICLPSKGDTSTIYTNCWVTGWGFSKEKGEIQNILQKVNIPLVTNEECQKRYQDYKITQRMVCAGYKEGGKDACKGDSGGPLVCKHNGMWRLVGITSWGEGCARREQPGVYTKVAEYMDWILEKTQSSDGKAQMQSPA
T8 sequence (P03952 20-390 partner limits assumed): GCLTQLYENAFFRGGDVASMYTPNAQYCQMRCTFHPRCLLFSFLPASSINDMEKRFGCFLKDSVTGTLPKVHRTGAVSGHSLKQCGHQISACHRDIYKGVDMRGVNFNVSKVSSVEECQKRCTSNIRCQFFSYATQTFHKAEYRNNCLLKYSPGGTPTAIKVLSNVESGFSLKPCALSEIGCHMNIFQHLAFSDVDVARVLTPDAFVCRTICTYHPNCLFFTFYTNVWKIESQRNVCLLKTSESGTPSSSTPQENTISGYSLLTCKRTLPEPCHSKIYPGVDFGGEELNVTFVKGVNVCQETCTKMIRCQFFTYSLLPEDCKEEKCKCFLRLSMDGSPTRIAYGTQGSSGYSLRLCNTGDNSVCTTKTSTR
T6 sequence (P00747 581-810 limits assumed): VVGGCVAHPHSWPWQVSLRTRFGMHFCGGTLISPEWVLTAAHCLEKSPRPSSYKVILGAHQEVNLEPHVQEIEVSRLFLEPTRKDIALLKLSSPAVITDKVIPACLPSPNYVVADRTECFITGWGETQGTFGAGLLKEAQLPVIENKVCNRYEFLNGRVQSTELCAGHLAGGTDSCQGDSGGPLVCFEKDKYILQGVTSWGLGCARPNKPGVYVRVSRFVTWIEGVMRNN
T6 sequence (P00747 98-580 partner limits assumed): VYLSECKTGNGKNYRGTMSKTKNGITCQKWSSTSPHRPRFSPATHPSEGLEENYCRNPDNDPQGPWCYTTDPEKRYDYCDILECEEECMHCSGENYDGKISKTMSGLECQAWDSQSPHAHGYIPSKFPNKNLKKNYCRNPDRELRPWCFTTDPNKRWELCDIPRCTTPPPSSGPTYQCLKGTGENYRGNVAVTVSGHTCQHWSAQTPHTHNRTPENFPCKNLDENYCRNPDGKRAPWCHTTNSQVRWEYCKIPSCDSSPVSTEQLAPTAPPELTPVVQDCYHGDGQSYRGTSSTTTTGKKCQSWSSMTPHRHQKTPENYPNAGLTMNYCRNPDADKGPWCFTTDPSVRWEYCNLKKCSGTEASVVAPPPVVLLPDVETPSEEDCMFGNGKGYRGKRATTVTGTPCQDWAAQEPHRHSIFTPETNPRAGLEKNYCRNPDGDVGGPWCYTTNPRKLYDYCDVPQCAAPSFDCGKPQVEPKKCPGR
T11 sequence (P20151 25-261): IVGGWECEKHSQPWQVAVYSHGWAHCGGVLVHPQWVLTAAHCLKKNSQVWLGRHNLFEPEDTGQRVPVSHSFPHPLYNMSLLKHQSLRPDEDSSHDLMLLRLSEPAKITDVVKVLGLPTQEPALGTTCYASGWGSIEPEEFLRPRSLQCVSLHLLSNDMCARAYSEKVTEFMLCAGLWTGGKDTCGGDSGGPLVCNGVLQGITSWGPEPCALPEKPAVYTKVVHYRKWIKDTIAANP
T10 sequence (P00750 36-562, species assumed): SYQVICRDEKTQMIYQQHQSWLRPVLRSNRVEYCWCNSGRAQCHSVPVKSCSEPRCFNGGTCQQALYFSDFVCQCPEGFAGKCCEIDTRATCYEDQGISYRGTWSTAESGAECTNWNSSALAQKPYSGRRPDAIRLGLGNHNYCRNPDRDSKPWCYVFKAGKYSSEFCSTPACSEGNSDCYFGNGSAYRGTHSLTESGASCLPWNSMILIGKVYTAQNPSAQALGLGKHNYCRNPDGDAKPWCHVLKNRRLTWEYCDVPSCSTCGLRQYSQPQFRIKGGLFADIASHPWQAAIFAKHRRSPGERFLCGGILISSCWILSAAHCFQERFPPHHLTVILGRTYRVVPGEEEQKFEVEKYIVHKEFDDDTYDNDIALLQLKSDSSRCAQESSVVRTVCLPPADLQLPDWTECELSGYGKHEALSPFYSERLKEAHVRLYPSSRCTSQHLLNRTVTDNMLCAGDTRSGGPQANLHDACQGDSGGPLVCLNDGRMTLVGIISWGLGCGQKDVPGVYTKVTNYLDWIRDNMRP
T1 sequence (P06870 25-262): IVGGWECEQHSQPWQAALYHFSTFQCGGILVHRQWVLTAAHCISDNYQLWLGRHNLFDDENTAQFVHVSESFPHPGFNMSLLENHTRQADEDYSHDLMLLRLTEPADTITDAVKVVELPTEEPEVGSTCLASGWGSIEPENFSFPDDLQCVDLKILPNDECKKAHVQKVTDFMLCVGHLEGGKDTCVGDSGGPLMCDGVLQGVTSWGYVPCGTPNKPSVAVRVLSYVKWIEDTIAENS
T4 sequence (Q9Y5K2 31-254): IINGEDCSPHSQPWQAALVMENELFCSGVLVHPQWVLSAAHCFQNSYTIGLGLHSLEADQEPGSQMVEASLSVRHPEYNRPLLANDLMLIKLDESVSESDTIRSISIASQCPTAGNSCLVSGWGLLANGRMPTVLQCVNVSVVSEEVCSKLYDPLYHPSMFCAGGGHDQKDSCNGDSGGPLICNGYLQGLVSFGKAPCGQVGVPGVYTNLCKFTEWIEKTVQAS

For the compound `COCCOCCOCCOC(=O)NC(c1ccc(NC(=N)N)cc1)P(=O)(Oc1ccccc1)Oc1ccccc1` (centres unmarked) [Compound 110, 2-(2-(2-methoxyethoxy)ethoxy)ethyl ((diphenoxyphosphoryl)(4-guanidinophenyl)methyl)carbamate], the pIC50 in assay [1] was 5.00 to 5.60; in assay [2], 5.00 to 5.60; in assay [3], 5.00 to 5.60; in assay [5], above 7.00; in assay [6], 5.60 to 6.00; in assay [7] it was 3.60 to 5.00. Moreover, the “kapp KLK4” value in assay [4] (apparent second-order rate constant, substrate 250 μM) was 19600 M⁻¹ s⁻¹. The “Irreversible (KLK4)” value in assay [4] was “Yes/”.
With “diphenyl ((4-guanidinophenyl)(4-methoxyphenylsulfonamido)methyl)phosphonate [Compound 132]”, the pIC50 in assay [1] (setting [13]) was 5.00 to 5.60; in assay [8], 5.00 to 5.60; in assay [3] (setting [14]), 5.00 to 5.60; in assay [9] it was 5.00 to 5.60; in assay [5] (setting [15]), 6.00 to 7.00; in assay [10] (setting [16]), 5.00 to 5.60. Also, the pIC50 in [11] and in [7] (setting [17]) was 5.00 to 5.60 throughout.
As to `CSCCOC(=O)NC(c1ccc(NC(=N)N)cc1)P(=O)(Oc1ccccc1)Oc1ccccc1` (centres unmarked) [Compound 108, 2-(methylthio)ethyl ((diphenoxyphosphoryl)(4-guanidinophenyl)methyl) carbamate], the pIC50 in assay [1] is 5.60 to 6.00; in assay [2], 5.00 to 5.60; in assay [12] it was 6.00 to 7.00; in [3], 5.00 to 5.60; in assay [5], above 7.00; in assay [6] it was 5.60 to 6.00. In assay [7], this compound gave a negative logarithm of the IC50 (pIC50) of 3.60 to 5.00.
`N=C(N)Nc1ccc(C(NS(=O)(=O)c2ccc(C(F)(F)F)cc2)P(=O)(Oc2ccccc2)Oc2ccccc2)cc1` (centres unmarked) [Compound 130]: the pIC50 in assay [5] (setting [15]) was above 7.00.
On to `N=C(N)Nc1ccc(C(NC(=O)OCCCC(F)(F)F)P(=O)(Oc2ccccc2)Oc2ccccc2)cc1` (centres unmarked) [Compound 107, 4,4,4-trifluorobutyl ((diphenoxyphosphoryl)(4-guanidinophenyl)methyl) carbamate], for which the negative logarithm of the IC50 (pIC50) in assay [1] is 5.00 to 5.60; in [2], 5.00 to 5.60; in [12], 6.00 to 7.00; in assay [3], 5.00 to 5.60; in assay [5] it was above 7.00; in assay [6] it was 5.00 to 5.60. Besides, in assay [7], the pIC50 is 3.60 to 5.00.
`N=C(N)Nc1ccc(C(NC(=O)OCc2c(F)c(F)c(F)c(F)c2F)P(=O)(Oc2ccccc2)Oc2ccccc2)cc1` (centres unmarked) [Compound 109, (perfluorophenyl)methyl ((diphenoxyphosphoryl)(4-guanidinophenyl)methyl) carbamate]: the pIC50 in assay [1] was 6.00 to 7.00; in assay [2], 5.60 to 6.00; in assay [12], 6.00 to 7.00; in assay [3], 5.00 to 5.60; in assay [5], above 7.00; in [6], 5.60 to 6.00. Also, in [7], the negative logarithm of the IC50 (pIC50) was 3.60 to 5.00.
As to `C#CCOCCOCCOC(=O)NC(Cc1ccc(NC(=N)N)cc1)P(=O)(Oc1ccccc1)Oc1ccccc1` (centres unmarked) [UPA2, reference compound], the negative-log IC50 (pIC50) in [2] (Matriptase, read-out: IC50 MAT) was 6.00 to 7.00; in assay [8] it was below 3.60; in assay [3] it was above 7.00; in assay [9] it was 3.60 to 5.00; in [10], 3.60 to 5.00; in assay [11] it was below 3.60. The pIC50 in assay [7] (setting [17]) is 5.00 to 5.60. The “Irreversible (KLK4)” value in assay [4] is given as “No”.
Regarding `N=C(N)Nc1ccc(C(NC(=O)OCCOCCOCc2cn(CCOCCOCCOCCNC(=O)CCCC[C@H]3SC[C@H]4NC(=O)N[C@H]43)nn2)P(=O)(Oc2ccccc2)Oc2ccccc2)cc1` (stereo partly drawn) [Compound 135, 2-(2-((1-(13-oxo-17-((3aR,4R,6aS)-2-oxohexahydro-1H-thieno[3,4-d]imidazol-4-yl)-3,6,9-trioxa-12-azaheptadecyl)-1H-1,2,3-triazol-4-yl)methoxy)ethoxy)ethyl ((diphenoxyphosphoryl)(4-guanidinophenyl)methyl)carbamate], the pIC50 in assay [1] (setting [13]) is 5.00 to 5.60; in [2] (Matriptase, read-out: IC50 MAT), 5.00 to 5.60; in assay [8], 3.60 to 5.00; in assay [3] (setting [14]), 5.00 to 5.60; in assay [9], 3.60 to 5.00; in assay [5] (setting [15]), above 7.00. Besides, the pIC50 in [10] (setting [16]) and in [7] (setting [17]) was 3.60 to 5.00 each time.
Regarding `N=C(N)Nc1ccc(C(NS(=O)(=O)c2ccccc2)P(=O)(Oc2ccccc2)Oc2ccccc2)cc1` (centres unmarked) [Compound 127, diphenyl ((4-guanidinophenyl)(phenylsulfonamido)methyl)phosphonate], the pIC50 in assay [8], in [3] (setting [14]), in [9], in [5] (setting [15]), in [10] (setting [16]) and in assay [11] was 5.00 to 5.60 each time. Besides, in [7] (setting [17]), the pIC50 is 5.00 to 5.60.
Regarding “diphenyl ((4-guanidinophenyl)(phenylsulfonamido)methyl)phosphonate [Compound 128]”, the negative logarithm of the IC50 (pIC50) in assay [8] was 5.00 to 5.60; in assay [3] (setting [14]) it was 5.00 to 5.60; in [9], 5.00 to 5.60; in assay [5] (setting [15]), 6.00 to 7.00; in assay [10] (setting [16]) it was 5.00 to 5.60; in assay [11], 5.00 to 5.60. Besides, the pIC50 in [7] (setting [17]) was 5.00 to 5.60.

Values taken from patent US10017527B2, “KLK4 inhibitors” (Universiteit Antwerpen, priority 2014, dated 2018).
